How the values were obtained:
Experiment in all cases: relative viability (nuclei count vs DMSO), 5 days (fraction); higher = more cells survive
SGI-1776 + Palbociclib = compound: CN1CCC(CNc2ccc3ncc(-c4cccc(OC(F)(F)F)c4)n3n2)CC1 [SGI-1776] + CC(=O)c1c(C)c2cnc(Nc3ccc(N4CCNCC4)cn3)nc2n(C2CCCC2)c1=O [Palbociclib] (partner 0.5 µM)
Procedure, shortened: (§1)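 One day after seeding in 1536-well plates, lung cancer cell lines were dosed by pin tool. Dosing was either single-drug or a fixed anchor-drug dose plus five library-drug doses (not always all listed) in √10 steps. After 5 days, nuclei were stained in one fix-and-stain step and counted on 4× images, and relative viability is the nuclei count of treated wells over that of vehicle wells, given as the median of duplicate plates.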

[1] = compound: C1COCCN1C2=NC(=NC3=C2OC4=C3C=CC=N4)C5=CC(=CC=C5)NC(=O)C6=CN=C(C=C6)N + C[C@@H](Oc1cc(-c2cnn(C3CCNCC3)c2)cnc1N)c1c(Cl)ccc(F)c1Cl [Crizotinib] (partner 1 µM)
Procedure, shortened: as §1

Entinostat + Vorinostat = compound: Nc1ccccc1NC(=O)c1ccc(CNC(=O)OCc2cccnc2)cc1 [Entinostat] + O=C(CCCCCCC(=O)Nc1ccccc1)NO [Vorinostat] (partner 1 µM)
Procedure, shortened: as §1

Cell Line: NCI-H2405
- relative viability (SGI-1776 + Palbociclib; first compound 0.08 µM): 0.553
- relative viability (SGI-1776 + Palbociclib; first compound 0.8 µM): 0.516
- relative viability (SGI-1776 + Palbociclib; first compound 2.53 µM): 0.484
- relative viability (SGI-1776 + Palbociclib; first compound 8 µM): 0.44
- relative viability ([1]; first compound 0.02 µM): 0.885
- relative viability ([1]; first compound 0.06325 µM): 0.864
- relative viability ([1]; first compound 0.2 µM): 0.848
- relative viability ([1]; first compound 0.6325 µM): 0.821
- relative viability ([1]; first compound 2 µM): 0.659
- relative viability (Entinostat + Vorinostat; first compound 0.02 µM): 1.23
- relative viability (Entinostat + Vorinostat; first compound 0.06325 µM): 1.02
- relative viability (Entinostat + Vorinostat; first compound 0.2 µM): 0.979
- relative viability (Entinostat + Vorinostat; first compound 0.6325 µM): 0.693
- relative viability (Entinostat + Vorinostat; first compound 2 µM): 0.42

Cell Line: NCI-H1650
- relative viability (SGI-1776 + Palbociclib; first compound 0.08 µM): 0.373
- relative viability (SGI-1776 + Palbociclib; first compound 0.8 µM): 0.354
- relative viability (SGI-1776 + Palbociclib; first compound 2.53 µM): 0.344
- relative viability (SGI-1776 + Palbociclib; first compound 8 µM): 0.228
- relative viability ([1]; first compound 0.02 µM): 1
- relative viability ([1]; first compound 0.06325 µM): 1.05
- relative viability ([1]; first compound 0.2 µM): 0.94
- relative viability ([1]; first compound 0.6325 µM): 1.06
- relative viability ([1]; first compound 2 µM): 0.601
- relative viability (Entinostat + Vorinostat; first compound 0.02 µM): 0.794
- relative viability (Entinostat + Vorinostat; first compound 0.06325 µM): 0.747
- relative viability (Entinostat + Vorinostat; first compound 0.2 µM): 0.571
- relative viability (Entinostat + Vorinostat; first compound 0.6325 µM): 0.438
- relative viability (Entinostat + Vorinostat; first compound 2 µM): 0.264

Cell Line: NCI-H1355
- relative viability (SGI-1776 + Palbociclib; first compound 0.08 µM): 0.419
- relative viability (SGI-1776 + Palbociclib; first compound 0.8 µM): 0.433
- relative viability (SGI-1776 + Palbociclib; first compound 2.53 µM): 0.413
- relative viability (SGI-1776 + Palbociclib; first compound 8 µM): 0.345
- relative viability ([1]; first compound 0.02 µM): 0.969
- relative viability ([1]; first compound 0.06325 µM): 1.21
- relative viability ([1]; first compound 0.2 µM): 1.07
- relative viability ([1]; first compound 0.6325 µM): 1.02
- relative viability ([1]; first compound 2 µM): 0.936
- relative viability (Entinostat + Vorinostat; first compound 0.02 µM): 0.604
- relative viability (Entinostat + Vorinostat; first compound 0.06325 µM): 0.638
- relative viability (Entinostat + Vorinostat; first compound 0.2 µM): 0.62
- relative viability (Entinostat + Vorinostat; first compound 0.6325 µM): 0.504
- relative viability (Entinostat + Vorinostat; first compound 2 µM): 0.381

Cell Line: NCI-H1734
- relative viability (SGI-1776 + Palbociclib; first compound 0.08 µM): 0.387
- relative viability (SGI-1776 + Palbociclib; first compound 0.8 µM): 0.339
- relative viability (SGI-1776 + Palbociclib; first compound 2.53 µM): 0.345
- relative viability (SGI-1776 + Palbociclib; first compound 8 µM): 0.283
- relative viability ([1]; first compound 0.02 µM): 0.73
- relative viability ([1]; first compound 0.06325 µM): 0.731
- relative viability ([1]; first compound 0.2 µM): 0.612
- relative viability ([1]; first compound 0.6325 µM): 0.636
- relative viability ([1]; first compound 2 µM): 0.345
- relative viability (Entinostat + Vorinostat; first compound 0.02 µM): 0.846
- relative viability (Entinostat + Vorinostat; first compound 0.06325 µM): 0.861
- relative viability (Entinostat + Vorinostat; first compound 0.2 µM): 0.84
- relative viability (Entinostat + Vorinostat; first compound 0.6325 µM): 0.604
- relative viability (Entinostat + Vorinostat; first compound 2 µM): 0.489

Cell Line: LXF-289
- relative viability (SGI-1776 + Palbociclib; first compound 0.08 µM): 0.593
- relative viability (SGI-1776 + Palbociclib; first compound 0.8 µM): 0.583
- relative viability (SGI-1776 + Palbociclib; first compound 2.53 µM): 0.619
- relative viability (SGI-1776 + Palbociclib; first compound 8 µM): 0.602
- relative viability ([1]; first compound 0.02 µM): 0.859
- relative viability ([1]; first compound 0.06325 µM): 0.903
- relative viability ([1]; first compound 0.2 µM): 0.821
- relative viability ([1]; first compound 0.6325 µM): 0.858
- relative viability ([1]; first compound 2 µM): 0.604
- relative viability (Entinostat + Vorinostat; first compound 0.02 µM): 0.784
- relative viability (Entinostat + Vorinostat; first compound 0.06325 µM): 0.784
- relative viability (Entinostat + Vorinostat; first compound 0.2 µM): 0.731
- relative viability (Entinostat + Vorinostat; first compound 0.6325 µM): 0.526
- relative viability (Entinostat + Vorinostat; first compound 2 µM): 0.381

Cell Line: PC-3 [JPC-3]
- relative viability (SGI-1776 + Palbociclib; first compound 0.08 µM): 0.518
- relative viability (SGI-1776 + Palbociclib; first compound 0.8 µM): 0.534
- relative viability (SGI-1776 + Palbociclib; first compound 2.53 µM): 0.533
- relative viability (SGI-1776 + Palbociclib; first compound 8 µM): 0.49
- relative viability ([1]; first compound 0.02 µM): 0.961
- relative viability ([1]; first compound 0.06325 µM): 1.02
- relative viability ([1]; first compound 0.2 µM): 1.02
- relative viability ([1]; first compound 0.6325 µM): 1.04
- relative viability ([1]; first compound 2 µM): 0.64
- relative viability (Entinostat + Vorinostat; first compound 0.02 µM): 1.15
- relative viability (Entinostat + Vorinostat; first compound 0.06325 µM): 0.911
- relative viability (Entinostat + Vorinostat; first compound 0.2 µM): 0.597
- relative viability (Entinostat + Vorinostat; first compound 0.6325 µM): 0.525
- relative viability (Entinostat + Vorinostat; first compound 2 µM): 0.36

Reference: the supplement of paper PMC10307832
